Assay results reported in PMC10965847, “Expanding a peptide-covalent probe hybrid for PET imaging of S. aureus driven focal infections” (EJNMMI Radiopharmacy and Chemistry, 2024).
Entries after “also recorded” stand apart in the source; their conditions may differ.

Columns and labels:
[1] = tested on: S. aureus membrane; test: Membrane depolarization, DiOC2(3), flow cytometry; format: cell-based; settings: 5 µM CCCP; DiOC2(3) 30 µM; result in words
Source text: AMPs are reported to destroy bacterial cells by permeabilizing the membrane, followed by depolarization (Mitra et al. [2020]; Bhatt Mitra et al. [2020]). To explore if UBI-APBA utilized this strategy to adversely affect the survival of S. aureus, depolarization and permeabilization of S. aureus membrane was studied by flow cytometry. […] Furthermore, we investigated the permeabilization of the S. aureus membrane by assessing propidium iodide uptake (PI).
For the permeabilization study, peptide-treated cells were washed with saline followed by staining with DNA stain, propidium iodide (PI) at a final concentration of 45 µM (30 min at 37 °C and 120 rpm). Isopropanol treated cells were used as positive control. The % permeabilization was calculated after normalizing the values with respect to the untreated (0% permeabilization) and isopropanol treated cells (100% permeabilization).
Positive control for membrane depolarization studies was prepared by incubating bacteria under similar conditions with 5 µM CCCP.

[2] = tested on: HEK 293 cells; test: Cell cytotoxicity (MTT) assay; settings: HEK 293, MTT, 24 h, result in words
Method: Human embryonic kidney (HEK 293) cells were maintained in DMEM supplemented with 10% FBS and 1% antibiotic-antimycotic solution at 37 °C, 5% CO2 in humidified atmosphere.
Cell cytotoxicity was measured by performing 3-(4,5-dimethylthiazol-2-yl)-2,5-diphenyltetrazolium bromide) (MTT) assay. Briefly, 2000 cells/100 µL were seeded in a 96-well plate and kept overnight in incubator at 37 °C, 5% CO2. […] Melittin (17 µM) was used as a positive control for cytotoxicity assay. Following incubation, 10 µL of MTT was added to each well and after 3 h the supernatant was removed and 100 µL of dimethyl sulfoxide (DMSO) was added. After 1 h incubation, the absorbance was recorded at 570 nm. One-way ANOVA was used to establish the presence of significant groups, and Tukey’s test was subsequently utilized to conduct the comparison of means.

[3] = tested on: human erythrocytes; test: Haemolysis assay; settings: 30 min, 37 °C, result in words; for haemolysis: human erythrocytes 4% (v/v) in PBS, 8, 32 and 128 µM, absorbance 540 nm, duplicates; for haemolysis (positive controls): human erythrocytes 4% (v/v), melittin 17 µM (50 µg/mL), triton X-100 0.1% (v/v)
Method: The haemolysis assay is widely used to assess the therapeutic potential of a given AMP. AMPs that cause ruptured RBCs at their MICs naturally have low therapeutic potential.
Fresh human blood samples were obtained from healthy donors with the approval of the institutional medical ethics committee. Erythrocytes were isolated from heparinized human blood by centrifugation at 2000g for 5 min after washing three times with PBS at 4 °C. After removing the supernatant, the cell pellet was resuspended in 2 mL of PBS, and cells were diluted at 4% (v/v) for the haemolysis experiment. […] Samples were centrifuged at 2000g for 5 min, and the absorbance of supernatants was measured at 540 nm using a polarstar omega plate reader from BMG Labtech. Erythrocytes lysed with 0.1% triton X-100 and 50 µg/mL melittin were used as positive controls. Percentage haemolysis was calculated using the formula: Haemolysis (%) = (ASAMPLE − ANG)/(APC − ANG) × 100[ASAMPLE = Absorbance recorded for samples at 540 nm, ANG = Absorbance recorded for untreated (negative control) erythrocytes at 540 nm, APC = Absorbance recorded for Melittin treated (positive control) erythrocytes at 540 nm]. One-way ANOVA was used to establish the presence of significant groups, and Tukey’s test was subsequently utilized to conduct the comparison of means.

[4] = tested on: S. aureus; settings: different experimental conditions and strain; ref Brouwer et al. [2006]; cited from earlier work
Method: (§1) The MICs were determined as the lowest concentration at which the conversion of the resazurin dye from blue to pink was absent. Conversely, the minimum bactericidal concentrations (MBC) were determined using the spot assay shown in Fig. 3a, where the absence of a bacterial lawn indicated the minimum required concent ...

[5] = tested on: S. aureus, ATCC 25,923; test: MIC by resazurin (alamar blue) reduction, broth dilution; format: cell-based; settings: for growth inhibitory (bacteriostatic) / bactericidal effect on S. aureus: MIC and MBC assays, result in words
Method: as §1, with “concentration for bacterial killing. […] Although UBI has been previously reported as bactericidal against S. aureus, the experimental conditions and strain utilized were different (Brouwer et al. [2006]).” for “concent ...”
A single colony of S. aureus, ATCC 25,923 (Microbiologics) was inoculated in Mueller Hinton broth (MHB) and incubated overnight at 120 rpm (revolutions per minute) and 37 °C. The experiment was carried out in a 96-microtiter plate using a broth dilution assay wherein all the peptides (ABI scientific) were diluted two-fold in each step-in media (M9 supplemented with 0.01% Tryptone). Cells were washed twice with media and diluted to a final concentration of 10^5 colony forming units (CFU) at each well. The final volume in each well was 200 µL. […] After 24 h, 30 µL of 0.75 mg/mL of resazurin dye (HiMedia Labs) was added in each of the wells and kept for incubation overnight at 37 °C with mild shaking. The next day, the 96 well plates as well as MHB-agar plates, were observed, and results were recorded. The experiment was carried out in triplicates. As mentioned earlier, S. aureus was cultured and washed with media to carry out a time-kill assay. Experiments were performed in microfuge tubes. ~10^6 cells were incubated with minimum inhibitory concentration (MIC) of UBI-APBA (2 µM) at a final volume of 500 µL adjusted with M9 media. Cells and UBI were incubated in media at 37 °C at 120 rpm. 50 µL aliquots from each reaction mixture were removed at required time intervals. These aliquots were plated on the MHB agar plates and incubated at 37 °C. The following day, colonies were counted to get CFU. Surviving fractions were plotted against time. Origin graphing and analysis 6.0 Pro software was used for plotting and analysis of data.

[6] = shake-flask octanol/water 1:1 (25 µL sample + 975 µL water + 1 mL octanol), vortexed, 5 min, centrifuged; NaI(Tl) counting; n = 4
Method: Partition coefficients for ^68Ga complexes were determined by mixing 25 µL of sample with 975 µL water and 1 mL octanol (octanol: water = 1:1). Thereafter, the mixture was vortexed and incubated for 5 min, followed by centrifugation for 5 min at 3000 rpm for separation of aqueous and organic phase. NaI (Tl) counter was used to measure the activity associated with both the phases and log P value [logarithm of the activity concentration in n-Octanol / activity concentration in the aqueous layer] was calculated.

[7] = in vitro; settings: human, human serum
Method: The hydrophilicity of complexes is a predictor of fast renal clearance, which is desirable for diagnostic radiopharmaceuticals.
To assess the stability of the ^68Ga labeled peptide conjugates in PBS, 50 µL of complexes were added to 450 µL of PBS (1:10 dilution) and incubated at 37 °C for 3 h. Aliquots were taken at the end of incubation and analyzed by HPLC, as described previously. Similarly, to estimate the integrity of the ^68Ga complexes in serum, incubation was done with human serum at 1:10 dilution for 3 h at 37 °C. Samples were precipitated with 2% trichloroacetic acid (TCA), separated by centrifuging at 10,000g for 5 min, and analyzed by HPLC.

[8] = In vitro stability of ^68Ga complexes in PBS; format: physicochemical; settings: 1:10 dilution, 37 °C, 3 h, radio-HPLC
[9] = tested on: S. aureus, ATCC 25,923; test: MBC by spot assay on MHB-agar; format: cell-based; settings: 5 µL aliquots from MIC wells spotted on MHB-agar, overnight 37 °C, absence of bacterial lawn, triplicates
Method: as §1, with “concentration for bacterial killing. […] Although UBI has been previously reported as bactericidal against S. aureus, the experimental conditions and strain utilized were different (Brouwer et al. [2006]).” for “concent ...”
A single colony of S. aureus, ATCC 25,923 (Microbiologics) was inoculated in Mueller Hinton broth (MHB) and incubated overnight at 120 rpm (revolutions per minute) and 37 °C. The experiment was carried out in a 96-microtiter plate using a broth dilution assay wherein all the peptides (ABI scientific) were diluted two-fold in each step-in media (M9 supplemented with 0.01% Tryptone). Cells were washed twice with media and diluted to a final concentration of 10^5 colony forming units (CFU) at each well. The final volume in each well was 200 µL. […] After 24 h, 30 µL of 0.75 mg/mL of resazurin dye (HiMedia Labs) was added in each of the wells and kept for incubation overnight at 37 °C with mild shaking. The next day, the 96 well plates as well as MHB-agar plates, were observed, and results were recorded. […] The following day, colonies were counted to get CFU. […]

N#CC(C#N)=NNc1cccc(Cl)c1 [CCCP, Carbonyl cyanide m-chlorophenyl hydrazone]
depolarization of bacterial membrane (positive control) [1]: low red to green fluorescence intensity ratio

CSCC[C@H](NC(=O)[C@H](CCCNC(=N)N)NC(=O)[C@H](CCCNC(=N)N)NC(=O)[C@H](CCCCN)NC(=O)[C@H](C)NC(=O)[C@H](CCCNC(=N)N)NC(=O)CNC(=O)[C@@H](N)[C@@H](C)O)C(=O)N[C@@H](CCC(N)=O)C(=O)N[C@@H](Cc1ccc(O)cc1)C(=O)N[C@@H](CC(N)=O)C(=O)N[C@@H](CCCNC(=N)N)C(=O)N[C@@H](CCCNC(=N)N)C(=O)NCC(=O)N[C@@H](CSCCCNC(=O)COc1ccc(C(C)=O)c(B(O)O)c1)C(N)=O [UBI-APBA]
cell cytotoxicity ([2]; 128 µM (64 × MIC of UBI-APBA), n = 3): minimal cytotoxicity; also recorded: neither hemolytic nor cytotoxic
haemolysis [3]: neither hemolytic nor cytotoxic

CSCC[C@H](NC(=O)[C@H](CCCNC(=N)N)NC(=O)[C@H](CCCNC(=N)N)NC(=O)[C@H](CCCCN)NC(=O)[C@H](C)NC(=O)[C@H](CCCNC(=N)N)NC(=O)CNC(=O)[C@@H](N)[C@@H](C)O)C(=O)N[C@@H](CCC(N)=O)C(=O)N[C@@H](Cc1ccc(O)cc1)C(=O)N[C@@H](CC(N)=O)C(=O)N[C@@H](CCCNC(=N)N)C(=O)N[C@@H](CCCNC(=N)N)C(=O)NCC(=O)N[C@@H](CS)C(N)=O [UBI]
haemolysis [3]: neither hemolytic nor cytotoxic
activity against S. aureus as previously reported [4]: bactericidal
growth inhibitory (bacteriostatic) / bactericidal effect on S. aureus [5]: no such effect

CSCC[C@H](NC(=O)[C@H](CCCNC(=N)N)NC(=O)[C@H](CCCNC(=N)N)NC(=O)[C@H](CCCCN)NC(=O)[C@H](C)NC(=O)[C@H](CCCNC(=N)N)NC(=O)CNC(=O)[C@@H](NC(=O)CCC(C(=O)O)N1CCN(CC(=O)O)CCN(CC(=O)O)CC1)[C@@H](C)O)C(=O)N[C@@H](CCC(N)=O)C(=O)N[C@@H](Cc1ccc(O)cc1)C(=O)N[C@@H](CC(N)=O)C(=O)N[C@@H](CCCNC(=N)N)C(=O)N[C@@H](CCCNC(=N)N)C(=O)NCC(=O)N[C@@H](CS)C(N)=O (stereo partly shown) [[^68Ga]Ga-UBI, metal not drawn]
Partition coefficient, Log P [6]: -3.8 ± 0.15
remaining at 3 h [7]: 97%
RCP after incubation in PBS [8]: 99%

CSCC[C@H](NC(=O)[C@H](CCCNC(=N)N)NC(=O)[C@H](CCCNC(=N)N)NC(=O)[C@H](CCCCN)NC(=O)[C@H](C)NC(=O)[C@H](CCCNC(=N)N)NC(=O)CNC(=O)[C@@H](NC(=O)CCC(C(=O)O)N1CCN(CC(=O)O)CCN(CC(=O)O)CC1)[C@@H](C)O)C(=O)N[C@@H](CCC(N)=O)C(=O)N[C@@H](Cc1ccc(O)cc1)C(=O)N[C@@H](CC(N)=O)C(=O)N[C@@H](CCCNC(=N)N)C(=O)N[C@@H](CCCNC(=N)N)C(=O)NCC(=O)N[C@@H](CSCCCNC(=O)COc1ccc(C(C)=O)c(B(O)O)c1)C(N)=O (stereo partly shown) [[^68Ga]Ga-UBI-APBA, metal not drawn]
remaining at 3 h [7]: 91%

Acetyl-cysteine-2-acetyl boronic acid [AcCys-2-APBA]
growth inhibitory (bacteriostatic) / bactericidal effect on S. aureus [5]: no such effect
MIC ([5]; S. aureus ATCC 25,923, two-fold broth dilution in M9 + 0.01% Tryptone, 10^5 CFU per well, 200 µL, resazurin added after 24 h, overnight 37 °C, lowest concentration without blue-to-pink conversion, visual, triplicates): > 32 µM
MBC [9]: > 32 µM

melittin
cell cytotoxicity (positive control) ([2]; melittin 17 µM): cytotoxic
haemolysis (positive controls) [3]: induced haemolysis

triton X-100
haemolysis (positive controls) [3]: induced haemolysis
